# Patent US10253037B2, “Drug with antiviral activity (variants)” (priority 2015, dated 2019)
# Key:
# Hepatitis B virus (HBV) = assay: Amount of extracellular HBV DNA in HepG2.2.15 culture medium (RT-PCR); type: cell-based; details: 5 μg/ml, HepG2.2.15 cells, 5 days; untreated control 4.42 +/− 0.28
# Protocol: HepG2.2.15 line cells infected with Hepatitis B virus were grown in DMEM medium supplemented with 10% bovine serum at 5% CO2, 37° C.
# Analysis of the amount of extracellular HBV of the DNA.
# After 5 days of HepG2.2.15 incubation the culture medium was selected, the cells were separated by centrifugation, and the DNA was isolated by the Klintschar and Neuhuber method (Klintschar and Neuhuber, 2000). Quantitation of HBV was performed using RT-PCR.
# HIV-1899A strain [1] = assay: Antiviral effect in MT-4 cells infected with HIV-1 (MTT, cytopathic effect, syncytium); type: cell-based; details: 0.01 TCD50/cell, 5 days
# Protocol: Cells. MT-4 human lymphoblastoid cells were used. The cells were incubated in RPMI 1640 medium with 10% serum of cow embryos, 100 μg/ml of gentamicin.
# Viruses. HIV-1899A strain was used as the source of the virus.
# The drug. Samples of drugs dissolved in dimethylsulfoxide were studied.
# Study of the antiviral effect of the drug.
# (§1) The investigated medicinal products were added to the cells at various doses with simultaneous infection with the virus at a dose of 0.01 TCD50/cell. The cell cultures were incubated at 37° C. in the atmosphere with 5% of CO2 and at 98% humidity for 5 days. The results were recorded by staining the cells with tetrazolium dye (MTT method) with spectrophotometry and light microscopy: investigation of cytopathic effect of the virus (CPD) and virus-induced formation of syncytium (syncytium is a conglomerate of several cells with a common cell membrane formed as a result of fusion of their membranes).
# The degree of protection of cells from the cyto-destructive effect of the virus was determined by the following formula:
# [formula] where • A is the number of viable cells in the experimental group; • B is the same in the infected culture (virus control); • K is the same in the uninfected culture (cell control).
# [2] = tested on: MT-4 human lymphoblastoid cells; assay: Cytotoxic effect of the drug on uninfected MT-4 cells (viability by dye); type: cell-based; details: 5 days
# Protocol: Cells. MT-4 human lymphoblastoid cells were used. […] The drug. Samples of drugs dissolved in dimethylsulfoxide were studied. Study of the cytotoxic effect of the drug. The investigated medicinal product was added to the cells in various concentrations. […] Recording of the results: determination of the viability and the number of the cells by means of a dye.
# HIV-1899A strain [3] = assay: Joint action with anti-HIV drugs: cell protection in HIV-1 infected MT-4 cells (MTT); type: cell-based
# Protocol: MT-4 human lymphoblastoid cells were used. The cells were cultured in RPMI 1640 medium with 10% serum of cow embryos, 100 μg/ml gentamicin.
# The strain of HIV-1899A was used as a source of the virus.
# The drug. Samples of drugs dissolved in dimethylsulfoxide were studied. As an antiretroviral reference drug, Raltegravir (prototype) was used.
# Study of the antiviral action of the drug (cell protection).
# as §1, with “drugs” for “medicinal products”, “Cell” for “The cell”, “5%” for “5% of”, “and” for “and at”
melting point,Compound,HBV Log10 IU/ml (amount of extracellular DNA HBV) (Hepatitis B virus (HBV)),"HIV 1 infection Cytopathic effect of the virus, % (HIV-1899A strain [1]; 10 μg/ml)","HIV 1 infection Protection of cells, % (HIV-1899A strain [1]; 10 μg/ml)","HIV 1 infection Cytopathic effect of the virus, % (HIV-1899A strain [1]; 30 μg/ml)","HIV 1 infection Protection of cells, % (HIV-1899A strain [1]; 30 μg/ml)","HIV 1 infection Cytopathic effect of the virus, % (HIV-1899A strain [1]; 50 μg/ml)","HIV 1 infection Protection of cells, % (HIV-1899A strain [1]; 50 μg/ml)","Without virus (cytotoxicity) Viability of cells, % ([2]; 10 μg/ml)","Without virus (cytotoxicity) Viability of cells, % ([2]; 30 μg/ml)","Without virus (cytotoxicity) Viability of cells, % ([2]; 50 μg/ml)","Protection of cells, % (HIV-1899A strain [3]; Lopinavir alone, 2.5 μg/ml)","Protection of cells, % (HIV-1899A strain [3]; Raltegravir alone, 10 μg/ml)","Protection of cells, % (HIV-1899A strain [3]; Retrovir alone, 0.003 μg/ml)"
–,O=[N+]([O-])c1ccc(C2c3c(O)nc(Cl)nc3Oc3nc(Cl)nc(O)c32)cc1 [Derivative 1],2.58 +/− 0.33 Log10 IU/ml,0.0-0.0%,100%,0.0-0.0%,90%,0.0-0.0%,100%,100.0%,100.0%,100.0%,–,–,–
–,"O=[N+]([O-])c1ccc(C2c3c(O)nc(S)nc3Oc3nc(Cl)nc(O)c32)cc1 (stereo not shown) [Derivative 2, 2-chloro-8-sulfhydryl-5-(4-nitrophenyl)-5H-pyrimido [5′,4′:5,6]pyrano[2,3-d]pyrimidine-4.6-diol]",2.65 +/− 0.19 Log10 IU/ml,0.0-0.0%,100%,96-100%,0%,55-80%,10%,100.0%,100.0%,100.0%,–,–,–
265 to 267 °C,"O=[N+]([O-])c1ccc(C2c3c(O)nc(Cl)nc3Oc3nc(Cl)nc(Cl)c32)cc1 (stereo not shown) [Derivative 3, 2,6,8-trichloro-5-(4-nitrophenyl)-5H-pyrimido [5′, 4′:5,6] pyrano [2,3-d] pyrimidin-4-ol]",–,15-70%,50%,18-92%,30%,10-40%,65%,100.0%,100.0%,100.0%,–,–,–
270 °C (dec.),"O=[N+]([O-])c1ccc(C2C3=C(O)NC(O)(S)N=C3Oc3nc(Cl)nc(O)c32)cc1 (stereo not shown) [Derivative 4, 2-chloro-8-sulfhydryl-5-(4-nitrophenyl)-5H-pyrimido [5′,4′:5,6]pyrano[2,3-d]pyrimidine-4,6,8-triol]",–,0.0-0.0%,95%,15-60%,50%,0.0-0.0%,90%,100.0%,100.0%,100.0%,–,–,–
–,Oc1nc(Cl)nc2c1C(c1ccccc1)c1c(O)nc(Cl)nc1O2 [Derivative 5],–,0.0-0.0%,100%,57.5-80.0%,10.7%,37.5-62.5%,71.7%,100.0%,100.0%,100.0%,–,–,–
–,Oc1nc(Cl)nc2c1C(c1cccc(Cl)c1)c1c(O)nc(Cl)nc1O2 [Derivative 6],–,57.5-80.0%,10.7%,37.5-62.5%,71.7%,0.0-0.0%,90.5%,100.0%,100.0%,100.0%,–,–,–
–,COc1ccc(C2c3c(O)nc(Cl)nc3Oc3nc(Cl)nc(O)c32)cc1 [Derivative 7],2.74 +/− 0.25 Log10 IU/ml,12-65%,45%,5-15%,80%,0.0-0.0%,100%,100.0%,100.0%,100.0%,–,–,–
–,Cc1cccc(C)c1OCC(=O)N[C@@H](Cc1ccccc1)[C@@H](O)C[C@H](Cc1ccccc1)NC(=O)[C@H](C(C)C)N1CCCNC1=O [Lopinavir],–,–,–,–,–,–,–,–,–,–,17%,–,–
–,"Cc1nnc(C(=O)NC(C)(C)c2nc(C(=O)NCc3ccc(F)cc3)c(O)c(=O)n2C)o1 [Raltegravir, reference compound]",–,0.0-0.0%,90%,0.0-0.0%,100%,0.0%,–,–,–,–,–,23%,–
–,Cc1cn([C@H]2C[C@H](N=[N+]=[N-])[C@@H](CO)O2)c(=O)[nH]c1=O [Retrovir],–,–,–,–,–,–,–,–,–,–,–,–,13%
